Assay results reported in patent publication US6914045B2, “Glycopeptide antibiotics” (Wyeth Holdings Corporation, priority 2001, dated 2005).
Values after ≈ are worked out from the molar mass of the structure shown.

Legend:
Enterococcus sp. = assay: in vitro antibacterial evaluation, MIC by broth dilution; format: cell-based; conditions: broth dilution, 18 hours at 35° C.; for MIC Enterococcus faecalis (ATCC 29212): strain ATCC 29212; for MIC Enterococcus faecium (GC 2243): strain GC 2243; for MIC Enterococcus faecalis (GC 4552): strain GC 4552; for MIC Enterococcus faecalis (GC 4553): strain GC 4553; for MIC Enterococcus faecalis (GC 4554): strain GC 4554; for MIC Enterococcus faecium (GC 4556): strain GC 4556; for MIC Enterococcus faecium (GC 4557): strain GC 4557; for MIC Enterococcus avium (GC 4558): strain GC 4558; for MIC Enterococcus faecalis (GC 6189): strain GC 6189
In short: (§1)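 Step 1: dilute antibiotic across 64-0.06 μg/mL in Muller-Hinton II […]. Step 2: inoculate at 5×10^5 CFU/mL.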

Escherichia coli = assay: as above; format: cell-based
In short: as §1

Staphylococcus sp. = assay: as above; format: cell-based; conditions: broth dilution, 18 hours at 35° C.; for MIC Staphylococcus aureus (GC 1131): strain GC 1131
In short: as §1

Streptococcus sp. = assay: as above; format: cell-based; conditions: broth dilution, 18 hours at 35° C.
In short: as §1

[1] = tested on: Staphylococcus aureus-SMITH (GC 4543); assay: acute lethal infection in mice; format: in vivo; conditions: acute lethal infection, female CD-1 mice, intraperitoneal challenge, intravenous 30 min. after infection, 7 day survival
In short: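 Survival at 7 days, pooled from three independent tests, yields ED50 values. Treatment is intravenous, 30 min after ip infection of female CD-1 mice, using an inoculum lethal to untreated controls within 24-48 hr.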

## CC(c1ccccc1)C1NC(=O)CNC(=O)C(CO)NC(=O)C(C(O)C2CNC(=N)N2C2OC(CO)C(O)C(O)C2O)NC(=O)C(C(O)C2CNC(=N)N2)NC(=O)C(Cc2ccc(OC3OC(CO)C(OC4OC5COC(c6cccc(-c7ccccc7)c6)OC5C(O)C4O)C(O)C3O)cc2)NC1=O (stereo not drawn) [Example 154, Cyclo[glycyl-β-methylphenylalanyl-O-[4-O-[4,6-O-(3-phenylbenzylidene)hexopyranosyl]-hexopyranosyl]tyrosyl-3-(2-iminoimidazolidin-4-yl)seryl-3-(3-hexopyranosyl-2-iminoimidazolidin-4-yl)serylseryl]]
Enterococcus sp.; Enterococcus faecalis (GC 2242)
  MIC Enterococcus faecalis (GC 2242): 2 µg/mL (≈ 1.37 µM)
Enterococcus sp.; Enterococcus faecalis (GC 2691)
  MIC Enterococcus faecalis (GC 2691): 2 µg/mL (≈ 1.37 µM)
Enterococcus sp.; Enterococcus faecalis (GC 3059)
  MIC Enterococcus faecalis (GC 3059): 2 µg/mL (≈ 1.37 µM)
Enterococcus sp.; inoculum 5×10^5 CFU/mL
  MIC Enterococcus faecalis (ATCC 29212): 2 µg/mL (≈ 1.37 µM)
  MIC Enterococcus faecium (GC 2243): 2 µg/mL (≈ 1.37 µM)
  MIC Enterococcus faecalis (GC 4552): 2 µg/mL (≈ 1.37 µM)
  MIC Enterococcus faecalis (GC 4553): 2 µg/mL (≈ 1.37 µM)
  MIC Enterococcus faecalis (GC 4554): 2 µg/mL (≈ 1.37 µM)
  MIC Enterococcus faecium (GC 4556): 2 µg/mL (≈ 1.37 µM)
  MIC Enterococcus faecium (GC 4557): 2 µg/mL (≈ 1.37 µM)
  MIC Enterococcus avium (GC 4558): 1 µg/mL (≈ 0.685 µM)
  MIC Enterococcus faecalis (GC 6189): 2 µg/mL (≈ 1.37 µM)
Enterococcus sp.
  MIC Enterococcus faecalis (ATCC 29212): 2 µg/mL (≈ 1.37 µM)
  MIC Enterococcus faecium (GC 2243): 2 µg/mL (≈ 1.37 µM)
  MIC Enterococcus faecalis (GC 4552): 2 µg/mL (≈ 1.37 µM)
  MIC Enterococcus faecalis (GC 4553): 2 µg/mL (≈ 1.37 µM)
  MIC Enterococcus faecalis (GC 4554): 2 µg/mL (≈ 1.37 µM)
  MIC Enterococcus faecium (GC 4556): 2 µg/mL (≈ 1.37 µM)
  MIC Enterococcus faecium (GC 4557): 2 µg/mL (≈ 1.37 µM)
  MIC Enterococcus avium (GC 4558): 1 µg/mL (≈ 0.685 µM)
  MIC Enterococcus faecalis (GC 6189): 2 µg/mL (≈ 1.37 µM)
Enterococcus sp.; strain GC 2242
  MIC Enterococcus faecalis (GC 2242): 2 µg/mL (≈ 1.37 µM)
Enterococcus sp.; strain GC 2691
  MIC Enterococcus faecalis (GC 2691): 2 µg/mL (≈ 1.37 µM)
Enterococcus sp.; strain GC 3059
  MIC Enterococcus faecalis (GC 3059): 2 µg/mL (≈ 1.37 µM)
Escherichia coli; strain ATCC 25922, 18 hours at 35° C.
  MIC Escherichia coli (ATCC 25922): 32 µg/mL (≈ 21.9 µM)
Escherichia coli; strain GC 4559, 18 hours at 35° C.
  MIC Escherichia coli (GC 4559): 32 µg/mL (≈ 21.9 µM)
Escherichia coli; strain GC 4560, 18 hours at 35° C.
  MIC Escherichia coli (GC 4560): 2 µg/mL (≈ 1.37 µM)
Staphylococcus sp.; inoculum 5×10^5 CFU/mL
  MIC Staphylococcus aureus (GC 1131): 1 µg/mL (≈ 0.685 µM)
Staphylococcus sp.; strain ATCC 29213
  MIC Staphylococcus aureus (ATCC 29213): 1 µg/mL (≈ 0.685 µM)
Staphylococcus sp.
  MIC Staphylococcus aureus (GC 1131): 1 µg/mL (≈ 0.685 µM)
Staphylococcus sp.; strain GC 3051
  MIC Staphylococcus aureus (GC 3051): 1 µg/mL (≈ 0.685 µM)
Staphylococcus sp.; strain GC 3053
  MIC Staphylococcus aureus (GC 3053): 2 µg/mL (≈ 1.37 µM)
Staphylococcus sp.; strain GC 4541
  MIC Staphylococcus aureus (GC 4541): 1 µg/mL (≈ 0.685 µM)
Staphylococcus sp.; strain GC 4542
  MIC Staphylococcus aureus (GC 4542): 1 µg/mL (≈ 0.685 µM)
Staphylococcus sp.; strain GC 4543
  MIC Staphylococcus aureus-SMITH (GC 4543): 1 µg/mL (≈ 0.685 µM)
Staphylococcus sp.; strain GC 4544
  MIC Staphylococcus aureus (GC 4544): 2 µg/mL (≈ 1.37 µM)
Staphylococcus sp.; strain GC 4545
  MIC Staphylococcus aureus (GC 4545): 1 µg/mL (≈ 0.685 µM)
Staphylococcus sp.; strain GC 4546
  MIC Staphylococcus haemolyticus (GC 4546): 1 µg/mL (≈ 0.685 µM)
Staphylococcus sp.; strain GC 4547
  MIC Coagulase Negative Staphylococcus (GC 4547): 2 µg/mL (≈ 1.37 µM)
Staphylococcus sp.; strain GC 4548
  MIC Coagulase Negative Staphylococcus (GC 4548): 0.5 µg/mL (≈ 0.343 µM)
Staphylococcus sp.; strain GC 4549
  MIC Coagulase Negative Staphylococcus (GC 4549): 0.25 µg/mL (≈ 0.171 µM)
Staphylococcus sp.; strain GC 4551
  MIC Coagulase Negative Staphylococcus (GC 4551): 2 µg/mL (≈ 1.37 µM)
Staphylococcus sp.; strain GC 6257
  MIC Coagulase Negative Staphylococcus (GC 6257): 1 µg/mL (≈ 0.685 µM)
Staphylococcus sp.; strain SMITH GC 4543
  MIC Staphylococcus aureus-SMITH (GC 4543): 1 µg/mL (≈ 0.685 µM)
Streptococcus sp.; Streptococcus agalactiae (GC 4564)
  MIC Streptococcus agalactiae (GC 4564): <0.06 µg/mL
Streptococcus sp.; Streptococcus pneumoniae (ATCC 6301)
  MIC Streptococcus pneumoniae (ATCC 6301): <0.06 µg/mL
Streptococcus sp.; Streptococcus pneumoniae (GC 1894)
  MIC Streptococcus pneumoniae (GC 1894): <0.06 µg/mL
Streptococcus sp.; Streptococcus pneumoniae (GC 4565)
  MIC Streptococcus pneumoniae (GC 4565): <0.06 µg/mL
Streptococcus sp.; Streptococcus pyogenes (GC 4563)
  MIC Streptococcus pyogenes (GC 4563): <0.06 µg/mL
Streptococcus sp.; strain ATCC 6301
  MIC Streptococcus pneumoniae (ATCC 6301): <0.06 µg/mL
Streptococcus sp.; strain GC 1894
  MIC Streptococcus pneumoniae (GC 1894): <0.06 µg/mL
Streptococcus sp.; strain GC 4563
  MIC Streptococcus pyogenes (GC 4563): <0.06 µg/mL
Streptococcus sp.; strain GC 4564
  MIC Streptococcus agalactiae (GC 4564): <0.06 µg/mL
Streptococcus sp.; strain GC 4565
  MIC Streptococcus pneumoniae (GC 4565): <0.06 µg/mL
[1]
  median effective dose (ED50), Staphylococcus aureus-SMITH (GC 4543): 0.1 mg/kg
